From paper PMC6842543, “Antiparasitic effect of synthetic aromathecins on Leishmania infantum” (BMC Veterinary Research, 2019)

What was measured:
[1] = system: L. infantum promastigotes; assay: In vitro iRFP L. infantum promastigotes viability assay (infrared fluorescence); assay type: cell-based, Leishmania infantum; settings: iRFP-L. infantum promastigotes, 72 h, 26 °C, fluorescence at 708 nm; average of three experiments by duplicate; read-out: EC50 L. infantum promastigotes
Method: (§1) Two series of aromathecins (Table 1) have been tested against both stages of L. infantum, free-living promastigotes and intracellular amastigotes harbored in mouse splenic cells. Experiments were carried out using a genetically modified L. infantum strain that constitutively produces the iRFP protein. This makes it possible to evaluate the viability of parasites measuring the fluorescence emitted at 708 nm.
The antiparasitic activity of the compounds was assessed on the genetically modified iRFP L. infantum strain, which constitutively produces the infrared fluorescent protein (iRFP) when cells are viable. iRFP L. infantum was grown at 26 °C in M-199 medium (Gibco) supplemented with 25 mM HEPES pH 7.2, 0.1 mM adenine, 0.0005% (w/v) hemin, 2 μg/mL biopterin, 0.0001% (w/v) biotin, 10% (v/v) heat-inactivated fetal bovine serum (FBS) and an antibiotic cocktail comprising 50 U/mL penicillin and 50 μg/mL streptomycin.
(§2) The viability of cultured parasites in the presence of different concentrations of aromathecins was determined by measuring the reduction of infrared fluorescence emitted by free-living promastigotes/amastigotes with respect to negative controls of each form of the parasite treated with DMSO (up to 0.1% final concentration) as a vehicle. […] After 72 h incubation at 26 °C, the infrared fluorescence emitted at 708 nm by viable promastigotes/amastigotes was measured in an Odyssey (Li-Cor) infrared imaging system. Similarly, the cytotoxic effect (CC50) of aromathecins on uninfected splenic explants from BALB/c mice (cells that naturally harbor the amastigote stage) was measured by the Alamar Blue (Invitrogen) assay. The selectivity index (SI) was determined as the relationship between the CC50 value and the EC50 value for amastigotes. CC50 and EC50 were calculated by nonlinear analysis using the Sigma-Plot 10.0 statistical package. The aromathecins were dissolved in DMSO and stored at − 20 °C before their use as fresh aliquots.

L. infantum amastigotes = assay: Ex vivo murine splenic explant culture with intramacrophagic iRFP L. infantum amastigotes; assay type: cell-based, Leishmania infantum; settings: splenic-infecting amastigotes, ex vivo explants from infected BALB/c mice, 72 h; read-out: EC50 L. infantum amastigotes
Method: as §1
Primary splenocyte cultures containing intramacrophagic amastigotes were obtained from dissected spleens of female BALB/c mice infected intraperitoneally with 1.5 × 10^9 metacyclic iRFP L. infantum promastigotes, 5 weeks before their sacrifice. Mice were obtained commercially (Janvier-Labs). Animals were housed in specific-pathogen free facilities and they were euthanized by cervical dislocation without anesthesia. These protocols were approved by the Animal Care Committee of University of Leon (project license SAF2017–83575-R), which complies with European Union Legislation (2010/63/UE) and Spanish Act (RD 53/2013).
(§3) The spleens were washed with cold phosphate-buffered saline (PBS), cut in small pieces and incubated for 20 min with 5 mL of 2 mg/mL collagenase D (Sigma) prepared in buffer (10 mM HEPES, pH 7.4, 150 mM NaCl, 5 mM KCl, 1 mM MgCl2 and 1.8 mM CaCl2). After that, the cell suspension obtained was passed through a 100 μm cell strainer, harvested by centrifugation (500×g for 7 min at 4 °C), washed twice with PBS, and cultured at 37 °C under 5% CO2 atmosphere in RPMI medium (Gibco) supplemented with 10 mM HEPES, 1 mM sodium pyruvate, 1xRPMI 1640 vitamin mix, 10% (v/v) FBS, 50 U/mL penicillin and 50 μg/mL streptomycin (Calvo-Álvarez et al., 2015).
as §2

Murine Splenocytes = assay: Cytotoxicity on uninfected splenic explants (Alamar Blue); assay type: cell-based, BALB/c mice
Method: as §3, §2

Which results are given for C[C@@H]1[C@H](O)[C@@H](C)/C=C/C=C/C=C/C=C/C=C/C=C/C=C/[C@H](O[C@@H]2O[C@H](C)[C@@H](O)[C@H](N)[C@@H]2O)C[C@@H]2O[C@](O)(C[C@@H](O)C[C@@H](O)[C@H](O)CC[C@@H](O)C[C@@H](O)CC(=O)O[C@H]1C)C[C@H](O)[C@H]2C(=O)O [AMB, reference compound]?
EC50 [1]: 800 ± 100 nM; EC50 (L. infantum amastigotes): 300 nM; CC50 (Murine Splenocytes): > 20 µM
